Measured values published in US20260274892A1, “MACROCYCLIC BROAD SPECTRUM ANTIBIOTICS” (RQx Pharmaceuticals, Inc., priority 2017, published 2026).

These compounds were tested on Escherichia coli ATCC 25922 (assay: Minimum inhibitory concentration (MIC), CLSI broth micro-dilution, E. coli). Details: Escherichia coli, ATCC25922, 22 h, Table 6, cation adjusted Mueller Hinton Broth + 0.002% Tween-80, 35° C.
Assay type: cell-based
How it was run: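 Colonies grown 20 h at 35° C on Trypticase Soy agar (MRSA) or Luria agar (E. coli) were suspended in cation-adjusted Mueller Hinton broth with 0.002% Tween-80. Suspensions were added at OD600 0.0005 to 10-point twofold compound dilutions, then incubated 22 h at 35° C.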
With CCc1nc(-c2ccc(C(C)(C)C)cc2)cc(N)c1C(=O)N[C@@H](CCN)C(=O)N(C)[C@@H]1C(=O)N[C@@H](C)C(=O)N[C@H](C(=O)NCC#N)Cc2ccc(OCCN)c(c2)-c2cc1ccc2OCCN (racemic) [Compound 546, rac-(8S,11S,14S)-3,18-bis(2-aminoethoxy)-N-(cyanomethyl)-11-methyl-14-[methyl-[rac-(2S)-4-amino-2-[[4-amino-6-(4-tert-butylphenyl)-2-ethyl-pyridine-3-carbonyl]amino]butanoyl]amino]-10,13-dioxo-9,12-diazatricyclo[13.3.1.12,6]icosa-1(18),2(20),3,5,15(19),16-hexaene-8-carboxamide] the MIC was 0.38 µM.
Compound Cc1nc(-c2ccc(OC3CCCCC3)cc2)nc(N)c1C(=O)N[C@@H](CCN)C(=O)N(C)[C@@H]1C(=O)N[C@@H](C)C(=O)N[C@H](C(=O)NCC#N)Cc2ccc(OCCN)c(c2)-c2cc1ccc2OCCN (racemic) [Compound 547, rac-(8S,11S,14S)-3,18-bis(2-aminoethoxy)-N-(cyanomethyl)-11-methyl-14-[methyl-[rac-(2S)-4-amino-2-[[4-amino-2-[4-(cyclohexoxy)phenyl]-6-methyl-pyrimidine-5-carbonyl]amino]butanoyl]amino]-10,13-dioxo-9,12-diazatricyclo[13.3.1.12,6]icosa-1(18),2(20),3,5,15(19),16-hexaene-8-carboxamide] has an MIC of 0.094 µM.
Work on Cc1nc(-c2cnc(OCCC(C)(C)C)nc2)nc(C)c1C(=O)N[C@@H](CCN)C(=O)N(C)[C@@H]1C(=O)N[C@@H](C)C(=O)N[C@H](C(=O)NCC#N)Cc2ccc(OCCN)c(c2)-c2cc1ccc2OCCN (racemic) [Compound 550, rac-(8S,11S,14S)-3,18-bis(2-aminoethoxy)-N-(cyanomethyl)-11-methyl-14-[methyl-[rac-(2S)-4-amino-2-[[2-[2-(3,3-dimethylbutoxy)pyrimidin-5-yl]-4,6-dimethyl-pyrimidine-5-carbonyl]amino]butanoyl]amino]-10,13-dioxo-9,12-diazatricyclo[13.3.1.12,6]icosa-1(18),2(20),3,5,15(19),16-hexaene-8-carboxamide] yielded an MIC of 2 µM.
For Cc1nc(-c2ccc(C(C)(C)C)cc2)cc(OCC(N)=O)c1C(=O)N[C@@H](CCN)C(=O)N(C)[C@@H]1C(=O)N[C@@H](C)C(=O)N[C@H](C(=O)NCC#N)Cc2ccc(OCCN)c(c2)-c2cc1ccc2OCCN (racemic) [Compound 551, rac-(8S,11S,14S)-3,18-bis(2-aminoethoxy)-N-(cyanomethyl)-11-methyl-14-[methyl-[rac-(2S)-4-amino-2-[[4-(2-amino-2-oxo-ethoxy)-6-(4-tert-butylphenyl)-2-methyl-pyridine-3-carbonyl]amino]butanoyl]amino]-10,13-dioxo-9,12-diazatricyclo[13.3.1.12,6]icosa-1(18),2(20),3,5,15(19),16-hexaene-8-carboxamide], the MIC was 1 µM.
In the case of C[C@@H]1NC(=O)[C@@H](N(C)C(=O)[C@H](CCN)NC(=O)c2c(N)cc(-c3ccc(C(C)(C)C)cc3)nc2Cl)c2ccc(OCCN)c(c2)-c2cc(ccc2OCCN)C[C@@H](C(=O)NCC#N)NC1=O (racemic) [Compound 554, rac-(8S,11S,14S)-3,18-bis(2-aminoethoxy)-N-(cyanomethyl)-11-methyl-14-[methyl-[rac-(2S)-4-amino-2-[[4-amino-6-(4-tert-butylphenyl)-2-chloro-pyridine-3-carbonyl]amino]butanoyl]amino]-10,13-dioxo-9,12-diazatricyclo[13.3.1.12,6]icosa-1(18),2(20),3,5,15(19),16-hexaene-8-carboxamide], the MIC is reported as 0.094 µM.
Cc1nc(-c2ccc(N3[C@H](C)CCC[C@@H]3C)cc2)nc(C)c1C(=O)N[C@@H](CCN)C(=O)N(C)[C@@H]1C(=O)N[C@@H](C)C(=O)N[C@H](C(=O)NCC#N)Cc2ccc(OCCN)c(c2)-c2cc1ccc2OCCN (racemic) [Compound 555, rac-(8S,11S,14S)-3,18-bis(2-aminoethoxy)-N-(cyanomethyl)-11-methyl-14-[methyl-[rac-(2S)-4-amino-2-[[4,6-dimethyl-2-[4-[rac-(2R,6S)-2,6-dimethyl-1-piperidyl]phenyl]pyrimidine-5-carbonyl]amino]butanoyl]amino]-10,13-dioxo-9,12-diazatricyclo[13.3.1.12,6]icosa-1(18),2(20),3,5,15(19),16-hexaene-8-carboxamide] showed an MIC of 0.19 µM.
For Cc1nc(-c2ccc(C(C)(C)C)cc2)cc(N)c1C(=O)N[C@@H](CCN)C(=O)N(C)[C@@H]1C(=O)N[C@@H](C)C(=O)N[C@H](C(=O)NCC#N)Cc2ccc(OCCN)c(c2)-c2cc1ccc2O (racemic) [Compound 557, rac-(8S,11S,14S)-3-(2-aminoethoxy)-N-(cyanomethyl)-18-hydroxy-11-methyl-14-[methyl-[rac-(2S)-4-amino-2-[[4-amino-6-(4-tert-butylphenyl)-2-methyl-pyridine-3-carbonyl]amino]butanoyl]amino]-10,13-dioxo-9,12-diazatricyclo[13.3.1.12,6]icosa-1(18),2(20),3,5,15(19),16-hexaene-8-carboxamide], the MIC was 0.25 µM.

Same assay, conditions: Escherichia coli, ATCC25922, 22 h, Table 7, cation adjusted Mueller Hinton Broth + 0.002% Tween-80, 35° C.
Work on Cc1nc(-c2ccc(C(C)(C)C)cc2)nc(C)c1C(=O)N[C@@H](CCN)C(=O)N(C)[C@@H]1C(=O)N[C@@H](C)C(=O)N[C@H](C(=O)NCC#N)Cc2cc(OCCN)c(O)c(c2)-c2cc1ccc2O (racemic) [Compound 561, (4S,7S,10S)-10-((S)-4-amino-2-(2-(4-(tert-butyl)phenyl)-4,6-dimethylpyrimidine-5-carboxamido)-N-methylbutanamido)-25-(2-aminoethoxy)-N-(cyanomethyl)-16,26-dihydroxy-7-methyl-6,9-dioxo-5,8-diaza-1,2(1,3)-dibenzenacyclodecaphane-4-carboxamide] yielded an MIC of 0.75 µM.

Same assay, conditions: Escherichia coli, ATCC25922, Table 7, cation adjusted Mueller Hinton Broth + 0.002% Tween-80, 35° C., 22 hours
Cc1nc(-c2ccc(C(C)(C)C)cc2)nc(C)c1C(=O)N[C@@H](CCN)C(=O)N(C)[C@@H]1C(=O)N[C@@H](C)C(=O)N[C@H](C(=O)NCC#N)Cc2cc(OCCN)c(O)c(c2)-c2cc1ccc2OCCN (racemic) [Compound 562, (4S,7S,10S)-10-((S)-4-amino-2-(2-(4-(tert-butyl)phenyl)-4,6-dimethylpyrimidine-5-carboxamido)-N-methylbutanamido)-16,25-bis(2-aminoethoxy)-N-(cyanomethyl)-26-hydroxy-7-methyl-6,9-dioxo-5,8-diaza-1,2(1,3)-dibenzenacyclodecaphane-4-carboxamide] gave an MIC of 0.094 µM.
Cc1nc(-c2ccc(C(C)(C)C)cc2)nc(C)c1C(=O)N[C@@H](CCN)C(=O)N(C)[C@@H]1C(=O)N[C@@H](C)C(=O)N[C@H](C(=O)O)Cc2cc(OCCN)c(O)c(c2)-c2cc1ccc2OCCN (racemic) [Compound 563, rac-(8S,11S,14S)-4,18-bis(2-aminoethoxy)-3-hydroxy-11-methyl-14-[methyl-[rac-(2S)-4-amino-2-[[2-(4-tert-butylphenyl)-4,6-dimethyl-pyrimidine-5-carbonyl]amino]butanoyl]amino]-10,13-dioxo-9,12-diazatricyclo [13.3.1.12,6]icosa-1(18),2,4,6(20),15(19), 16-hexaene-8-carboxylic acid] was tested, and the MIC was 0.25 µM.
